Test results reported in patent US12441732B2, “Potassium salt crystal form B of phosphodiesterase type 5 inhibitor, and preparation method and use therefor” (Guangzhou Huazhen Pharmaceutical Co., Ltd, priority 2019, dated 2025).

Tests used:
[1] = tested on: IPF rats; experiment: Bleomycin-induced idiopathic pulmonary fibrosis (IPF) rats; assay type: in vivo, SD rats; conditions: 23 days; for Fibrosis area / Fibrosis score (Ashcroft) / Percentage of score (%) (≤3) / Percentage of score (%) (≥4): left lung
Procedure: The animals were purchased, and modeling was started after 3-7 days of acclimatization. The animals were weighed and anesthetized by inhalation with isoflurane. After the animals were confirmed to be anesthetized, the neck was disinfected, and the skin of the neck was cut. The main trachea was exposed by bluntly dissecting the muscle, a small incision was made between the tracheal rings, into which a PE-20 tube was inserted until the left main bronchus, and bleomycin was injected directly (dose: 3 mg/kg, volume: 1.0 ml/kg). The trachea and skin were sutured. After the surgery, the animals were kept warm at 37° C. under an electric blanket until the animals were fully awake and confirmed to be able to feed and drink freely before returning the animals to their normal feeding cages.
50 mg/kg Nintedanib group (BIBF-50 mg/kg): BIBF was prepared into a solution of 10 mg/ml with 0.5% sodium carboxymethyl cellulose and administered by gavage at a dose of 50 mg/kg^−1·d^−1;
Each group of rats was administered by gavage on the day of modeling, once a day for 23 days in total.
After 23 days of continuous administration, all animals in each group were euthanized by intraperitoneal injection of pentobarbital sodium anesthetic (100 mg/kg) in accordance with the KCl standard operating procedure for animal euthanasia. Whole-body perfusion was performed by low-temperature PBS, and then fixation was performed by whole-body formalin perfusion. The left lung was taken and perfused with an equal amount of formalin fluid for weighing and subsequent lung pathology-related tests.
Left lung gross pathological examination: after perfusion with an equal amount of formalin, the wet weight of the left lung after the perfusion was weighed and recorded with a microbalance; the volume of the left lung after perfusion was measured and recorded using a toe volume measuring instrument.
The whole lung of the left lung was dehydrated according to the KCl pathology standard SOPs, and paraffin blocks were prepared. The whole lung of the left lung was paraffin-sectioned at a thickness of 3-4 μm. HE staining and Masson Trichrome staining were performed according to the KCl pathology standard staining SOPs, and the slice panoramic scanning was carried out by a Hamamatsu NanoZoomer Digital Pathology (S210) slice scanner. The lung lesion area was calculated by Masson Trichrome staining of the sections, and the left lung fibrosis area (%) was the percentage of fibrosis area in the left lung area; 10 randomly selected fields of view of 1 mm^2 in the lesion area were semi-quantitatively scored by the pathologist under double-blind conditions according to the Ashcroft scoring system (as shown in Table 8 and FIG. 40).

[2] = Solid-state stability test (one week, open); assay type: physicochemical; conditions: for HPLC purity: Purity after placement / Purity after placement/Starting purity / Crystal form change: open, one week; for Crystal form change: XRPD
Procedure: The solid-state stability of the potassium salt crystal form B prepared in Embodiment 1 was tested, in which 5.22 mg of potassium salt crystal form B samples were weighed and left open at 25° C./60% RH, and 5.19 mg of potassium salt crystal form B samples were weighed and left open at 40° C./75% RH. After one week, all samples were subjected to XRPD characterization (see XRPD parameter settings in Table 1) and HPLC purity test (Agilent 1100) to detect changes in crystal form and purity, wherein HPLC purity test parameters were shown in Table 6. Meanwhile, 4.59 mg of a compound WYQ sample was weighed and left open at 25° C./60% RH, and 5.11 mg of the compound WYQ sample was weighed and left open at 40° C./75% RH. The solid-state stability of these samples were performed under the same conditions for comparative reference.

[3] = tested on: rats with isoproterenol-induced myocardial hypertrophy; experiment: Isoproterenol-induced myocardial hypertrophy in rats; assay type: in vivo, SD rats; conditions: Iso rats, 2 mg·kg^−1·d^−1 gavage, 7 days
Procedure: SD rats were randomly divided into 3 groups, 10 rats/group: a normal control group (CON); an isoproterenol-induced myocardial hypertrophy model group (Iso); an Iso+the potassium salt crystal form B of WYQ treatment group (hereafter referred to as a treatment group).
Isoproterenol was prepared into a 4 mg/ml medicinal solution with double-distilled water, which was ready to be used. The normal control group was injected with normal saline (5 mg/kg) subperitoneally, and the rest of the groups were injected with isoproterenol (5 mg/kg) subperitoneally once a day for 7 consecutive days.
Treatment group: the potassium salt crystal form B of WYQ was prepared into a 0.4 mg/ml medicinal solution with normal saline (ready to use) and administered by gavage at a dose of 2 mg·kg^−1·d^−1; and
the day of injection was the starting date of the experiment, and the administration was started 2 hours after the modeling, once a day for 7 consecutive days.
After 7 days from the starting date of the experiment, the left ventricle was intubated retrogradely through the right common carotid artery, and the hemodynamic indexes of each group of rats were collected on the RM-6240E polygraph, including the left ventricular pressure (LVP) and the rate of ventricular pressure change (dp/dt).
One week after the starting date of the experiment, the animals were anesthetized and hemodynamically tested (RM-6240E polygraph). The animals were sacrificed after pressure measurement. The heart tissues were immediately dissected and rinsed in frozen normal saline to remove blood. The heart was weighed quickly, and the left and right atria are cut along the atrio-ventricular junction with ophthalmic scissors. The left ventricle was separated, and absorbed water with filter paper, weighed, and put into liquid nitrogen for extraction of protein and mRNA to detect changes in the expression of hypertrophy-related factor genes. After 2 hours, the left ventricle tissue was transferred to a refrigerator at −80° C. for freezing and storage. After completing the above operations, the leg skin and muscles of the rats were cut with surgical scissors to fully expose the tibia, and the length of the tibia was measured. The myocardial hypertrophy index of rats was expressed by a heart-tibia length (HW-Tibia).

[4] = tested on: UUO model mice; experiment: Unilateral ureteral obstruction mouse model (UUO model) of renal fibrosis; assay type: in vivo, C57BL/6 mice; conditions: 5 mg·kg^−1·d^−1 gavage, 7 days
From the text: Fifteen male C57BL/6 mice were adaptively fed for one week and randomly divided into two groups: a Sham group (a sham-operation group) including 5 mice and a surgical modeling group including 10 mice. Surgical method: the abdominal cavities of the mice in the sham-operation group were opened under anesthesia to free the left ureter without ligation, and then their abdomens were closed and sutured; the left ureters of the mice in the modeling group were ligated under anesthesia. The mice in the modeling group were further randomly divided into two groups: a UUO group (a model group) and a treatment group of the potassium salt crystal form B of WYQ (5 mg/kg), 5 mice in each group.
The first gavage administration was started 2 hours after the operation.
(2) treatment group of the potassium salt crystal form B of WYQ: the potassium salt crystal form B of WYQ was diluted into a 1 mg/ml solution with normal saline and administered by gavage at the dose of 5 mg·kg^−1·d^−1; and
administered once a day for consecutive 7 days.
After 7 days of drug administration, all the mice were sacrificed. The abdominal cavity was opened and the left and right kidney tissues were peeled off, caring to maintain the integrity of the kidneys. The kidneys were taken out and quickly transferred to pre-cooled PBS, and the kidneys were cut for different assays. The kidney was divided into four parts with a scalpel, and the dorsal side of the kidney was fixed in 4% paraformaldehyde for making paraffin sections. Morphological changes of kidney tissues were observed by HE staining and Masson staining, and changes of expression of fibrosis marker proteins in kidney tissues were observed by immunohistochemistry.

[5] = 10 mg/kg, listed as CPD-1, 10 mg/kg
[6] = 10 mg/kg, listed as potassium salt crystal form B of WYQ
[7] = both test conditions (25° C./60% RH, 40° C./75% RH)

Compound: CCCCOC(=O)[N-]S(=O)(=O)c1cccc(-c2nc3c(CCC)nn(C)c3c(=O)[nH]2)c1.[K+] [potassium salt crystal form B]
- Left lung volume ([1]; 2.5 mg/kg gavage once a day): 1779.9 ± 105.76 mm^3
- Left lung weight ([1]; 2.5 mg/kg gavage once a day): 1.59 ± 0.10 g
- alveolar tissue structure in left lung pulmonary fibrosis lesions (HE staining) ([1]; 2.5 mg/kg): some of the alveolar structures in the fibrotic lesions were damaged
- alveolar tissue structure in left lung pulmonary fibrosis lesions (Masson Trichrom staining) ([1]; 2.5 mg/kg): some of the alveolar structures in the fibrotic lesions were preserved
- Left lung volume ([1]; 10 mg/kg gavage once a day): 1604.5 ± 153.72 mm^3
- Left lung weight ([1]; 10 mg/kg gavage once a day): 1.47 ± 0.16 g
- alveolar tissue structure in left lung pulmonary fibrosis lesions (HE staining) ([1]; 10 mg/kg): the alveolar structures in the fibrotic lesions were preserved
- alveolar tissue structure in left lung pulmonary fibrosis lesions (Masson Trichrom staining) ([1]; 10 mg/kg): most of the alveolar structures in the fibrotic lesions were preserved
- smooth muscle proliferation and inflammatory cell infiltration in bronchioles and pulmonary arterioles of left lung fibrosis lesions vs model group ([1]; 10 mg/kg, HE staining): better effects
- left lung pulmonary fibrosis lesions and lesion range vs the model group ([1]; different doses, H&E and Masson Trichrom staining): no significant difference
- Fibrosis area ([1]; 2.5 mg/kg): 51.99 ± 3.21%
- Fibrosis score (Ashcroft) ([1]; 2.5 mg/kg): 3.21 ± 0.30
- Percentage of score (%) (≤3) ([1]; 2.5 mg/kg): 53.75 ± 9.81%
- Percentage of score (%) (≥4) ([1]; 2.5 mg/kg): 46.25 ± 9.81%
- Fibrosis area ([1]; 10 mg/kg): 53.42 ± 4.44%
- Percentage of score (%) (≤3) ([1]; 10 mg/kg): 71.25 ± 10.08%
- Fibrosis score (Ashcroft) [1, 5]: 2.69 ± 0.31
- Percentage of score (%) (≥4) [1, 5]: 28.75 ± 10.08%
- Fibrosis score (Ashcroft) [1, 6]: significantly inhibit
- Percentage of score (%) (≥4) [1, 6]: significantly reduced
- HPLC purity: Purity after placement ([2]; 25° C./60% RH): 98.62 area %
- Purity after placement/Starting purity ([2]; 25° C./60% RH): 99.9%
- Crystal form change ([2]; 25° C./60% RH): unchanged
- HPLC purity: Purity after placement ([2]; 40° C./75% RH): 98.51 area %
- Purity after placement/Starting purity ([2]; 40° C./75% RH): 99.8%
- Crystal form change ([2]; 40° C./75% RH): unchanged
- change in purity after one week of placement [2, 7]: no significant change
- change in the crystal form after one week of placement [2, 7]: no change
- BNP gene expression in heart tissue vs model group [3]: significantly decreased
- HW-Tibia ratio vs model group [3]: significantly reduced
- Max dp/dt vs model group [3]: significantly higher
- Min dp/dt vs model group [3]: significantly higher
- expression of ANP gene in left heart tissue vs model group [3]: significantly decreased
- expression of ANP protein in left heart tissue vs model group [3]: significantly decreased
- left ventricle-tibia length ratio vs model group [3]: significantly reduced
- left ventricular pressure (LVP) vs model group [3]: significantly higher
- FN1 protein expression level in kidney tissue (immunohistochemistry) [4]: significantly reduced
- fibrosis area in the renal fibrosis lesions vs UUO model group [4]: significantly decrease
- proliferation of renal interstitial collagen fibers [4]: reduced
- inflammatory cell infiltration in the kidney ([4]; HE staining): significantly reduced
